These results are taken from patent US7029870B1 (priority 1997, dated 2006).

Experiment [1] addresses T1, α2/β1/ε GABAA receptors (Homo sapiens, UniProt P18505+P47869+P78334, S102A).
T1 sequence (P47869 29-451): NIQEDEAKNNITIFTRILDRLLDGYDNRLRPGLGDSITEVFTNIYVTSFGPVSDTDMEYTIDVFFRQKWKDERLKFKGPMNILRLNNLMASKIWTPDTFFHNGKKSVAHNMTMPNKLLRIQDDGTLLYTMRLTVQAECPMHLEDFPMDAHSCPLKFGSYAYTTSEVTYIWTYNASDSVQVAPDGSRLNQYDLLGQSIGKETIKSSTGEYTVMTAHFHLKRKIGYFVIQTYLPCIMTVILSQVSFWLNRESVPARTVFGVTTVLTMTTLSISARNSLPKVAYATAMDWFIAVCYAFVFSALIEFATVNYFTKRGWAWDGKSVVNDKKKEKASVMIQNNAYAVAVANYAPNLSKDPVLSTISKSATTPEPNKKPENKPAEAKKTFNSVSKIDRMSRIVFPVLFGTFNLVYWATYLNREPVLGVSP
T1 sequence (P18505 26-474): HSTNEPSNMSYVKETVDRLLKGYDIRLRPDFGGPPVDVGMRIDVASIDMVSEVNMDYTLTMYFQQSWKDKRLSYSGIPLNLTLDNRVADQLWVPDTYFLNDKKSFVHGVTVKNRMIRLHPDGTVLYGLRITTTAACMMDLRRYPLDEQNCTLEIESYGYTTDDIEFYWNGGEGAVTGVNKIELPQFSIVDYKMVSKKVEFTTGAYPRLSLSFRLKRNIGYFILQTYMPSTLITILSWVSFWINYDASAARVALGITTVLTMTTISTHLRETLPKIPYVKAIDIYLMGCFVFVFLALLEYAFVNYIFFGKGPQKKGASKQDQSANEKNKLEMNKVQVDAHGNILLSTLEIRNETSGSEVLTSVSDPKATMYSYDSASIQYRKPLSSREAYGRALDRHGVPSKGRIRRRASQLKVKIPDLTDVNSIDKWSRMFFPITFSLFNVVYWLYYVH
T1 sequence (P78334 23-506 S102A): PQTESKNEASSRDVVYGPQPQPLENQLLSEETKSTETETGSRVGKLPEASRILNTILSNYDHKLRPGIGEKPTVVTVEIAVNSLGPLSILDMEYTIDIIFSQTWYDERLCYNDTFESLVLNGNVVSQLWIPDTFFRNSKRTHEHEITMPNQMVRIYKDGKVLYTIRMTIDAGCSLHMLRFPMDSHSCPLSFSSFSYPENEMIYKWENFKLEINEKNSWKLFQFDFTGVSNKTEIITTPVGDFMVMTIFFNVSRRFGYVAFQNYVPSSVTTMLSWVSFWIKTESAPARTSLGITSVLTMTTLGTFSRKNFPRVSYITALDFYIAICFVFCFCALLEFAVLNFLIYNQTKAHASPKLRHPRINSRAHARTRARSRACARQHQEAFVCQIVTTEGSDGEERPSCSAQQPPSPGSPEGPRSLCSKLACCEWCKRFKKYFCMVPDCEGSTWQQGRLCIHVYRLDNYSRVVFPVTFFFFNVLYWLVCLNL
The settings on record: α2/β1/ε subunits.

Experiment [2] has as its target T1, α2/β1/ε GABAA receptors. Format: cell-based. Further details: The ε-subunit open reading frame was amplified from a hippocampal cDNA library; expressed in transfected cells; host or cells: HEK-293 (transient, calcium phosphate). The note with it: for Block of GABA-evoked currents: inhibitor 10 μM, bath applied.
In experiment [3] the test system is α/β/ε GABAA receptors. The experiment can be described thus: Benzodiazepine radioligand binding to membranes of cells transfected with α-, β- and ε-subunits. Further details: species or system human, rat. The note with it: radioligand 1–50 nM.
In experiment [4] the target is T2, α1/β3/ε GABAA receptors (UniProt P28472+P62813+P78334, S102A).
T2 construct: The ε-subunit open reading frame was amplified from a hippocampal cDNA library; expressed in transfected cells; host or cells: HEK-293 (transient, calcium phosphate); membranes prepared from the transfected cells
On the set-up: species or system rat α1, human β3, human ε. The settings on record: α1/β3/ε subunits; read-out: Maximal stimulation of [3H]muscimol binding to cell membranes.

Experiment [5] relates to α/β/ε GABAA receptors (α2/β1/ε or α1/β3/ε).

Regarding 5α-pregnan-3α-ol-20-one [pregnanolone], the “Effect on [35S]TBPS binding” value in experiment [1] was “no stimulatory phase”. The “Effect on submaximal GABA-activated currents” value in experiment [2] (concentrations up to 100 nM, α2/β1/ε) is “No significant effects”. The “Potentiation of submaximal GABA-activated currents” value in experiment [2] (high concentrations of the steroid, α2/β1/ε) is given as “up to 73%”.

`NCCCC(=O)O` [GABA, γ-aminobutyric acid]: the “Reversal potential of GABA-evoked currents” value in experiment [2] (100 μM GABA, α2/β1/ε, linear fit) is reported as 5.7 mV. Further, the “Hill slope of GABA concentration-response” value in experiment [2] (α2/β1/ε cDNAs) was determined as 1.1. Consider `CCOC(=O)c1ncn2c1CN(C)C(=O)c1cc(F)ccc1-2` [[^3H]flumazenil, flumazenil], for which the “Binding to transfected cell membranes” value in experiment [3] is listed as “did not bind”.

`CN1C(=O)CN=C(c2ccccc2F)c2cc([N+](=O)[O-])ccc21` [[^3H]flunitrazepam, flunitrazepam]: in experiment [3], the “Binding to transfected cell membranes” value is “did not bind”. On to `CN1CCc2cc3c(cc2[C@H]1[C@@H]1OC(=O)c2c1ccc1c2OCO1)OCO3` [bicuculline], for which, in experiment [2] (α2/β1/ε), the “Block of GABA-evoked currents” value is 73.6±9.3%. Regarding `CCCC(C)C1(CC)C(=O)NC(=O)NC1=O` (stereo not drawn) [pentobarbital], the Emax in experiment [4] was < 15%. Moreover, the “Enhancement of GABA-evoked currents” value in experiment [5] is “blocked the ability”. Take `CC(C)c1cccc(C(C)C)c1O` [propofol, 2,6-diisopropylphenol]: the “Enhancement of GABA-evoked currents” value in experiment [5] is listed as “blocked the ability”. For picrotoxin, the “Block of GABA-evoked currents” value in experiment [2] (α2/β1/ε) was found to be 82.5±7.4%.
